This is an account of results in patent publication US11806342B2, “Diiodohydroxyquinoline for the treatment of clostridium difficile infection” (Purdue Research Foundation, priority 2019, dated 2023).

In experiment [1] the test system is species of Bacteroides and Bifidobacterium. Briefly: MIC against normal gut microflora. The format is cell-based. Conditions: species of Bacteroides and Bifidobacterium tested; for DIHQ except B. longum, B. adolescentis, B. angulatum; read-out: MIC (growth inhibitory concentration). As for the experimental part: (§1) In vitro antimicrobial evaluation of diiodohydroxyquinoline against normal microflora. The broth microdilution assay was utilized to determine the MICs of DIHQ and control antibiotics against commensal organisms that compose he human gut microflora, as described elsewhere. A bacterial solution equivalent to 0.5 McFarland standard was prepared and diluted in BHIS broth (for Bifidobacterium and Bacteroides) or in MRS broth (for Lactobacillus) to achieve a bacterial concentration of about 5×10^5 CFU/mL. Then, drugs were added and serially diluted along the plates.

The test system of the next experiment is C. difficile I9. The experiment in a line: Checkerboard assay, DIHQ with metronidazole or vancomycin. Format: cell-based, Clostridium difficile. Conditions: for MIC: Clostridioides difficile. As for the experimental part: (§2) The fractional inhibitory concentration index (ΣFIC) was calculated for each interaction. Interactions where the ΣFIC index was ≤0.5 were categorized as synergistic (SYN).

For the next experiment, the system named is C. difficile ATCC 43255. The description is as above. Format: cell-based, Clostridium difficile. Conditions: for MIC: Clostridioides difficile. As for the experimental part: as §2
Experiment [2] concerns C. difficile ATCC BAA-1870. The experiment is described as above. The conditions noted are these: for MIC: Clostridioides difficile. The format is cell-based, Clostridium difficile. As to the method:
as §2

Experiment [3] deals with Lactobacillus and Bacteroides strains. The experiment in a line: MIC against normal gut microflora. The format is cell-based. Conditions: Phocaeicola dorei; Lactobacillus and Bacteroides strains tested, with the exception of B. dorei HM-719; read-out: MIC (growth inhibitory concentration). As for the experimental part: as §1
For experiment [4], the system named is C. difficile ATCC BAA-1870. Briefly: Initial screening of antiparasitic drugs, broth microdilution MIC. Format: cell-based, Clostridium difficile. Conditions: Clostridioides difficile. On the technique in general: Broth dilution looks for growth in wells or tubes with falling amounts of substance.
A further experiment has as its system Bifidobacterium longum. Briefly: MIC against normal gut microflora. Conditions: both strains. Format: cell-based. As to the method:
as §1

For experiment [5], the system named is 2 clinical C. difficile strains. The experiment in a line: Initial screening of antiparasitic drugs, both strains. The format is cell-based, Clostridium difficile. Conditions: Clostridioides difficile, both tested C. difficile strains, read-out: MIC (growth inhibitory concentration). As for the experimental part:
C. difficile strains were grown anaerobically on brain heart infusion supplemented (BHIS) agar plates at 37° C. for 48 hours. Afterwards, a bacterial solution equivalent to 0.5 McFarland standard was prepared and diluted in (BHIS) broth to achieve a bacterial concentration of about 5×10^5 CFU/mL. Drugs were added and serially diluted along the plates. Plates were then, incubated anaerobically at 37° C. for 48 hours. MICs reported in Table (1) are the minimum concentrations of the drugs that could completely suppress the visual growth of bacteria.

For experiment [6], the system named is C. difficile clinical isolates. Briefly: Checkerboard assay, summary over 9 tested strains. The format is cell-based, Clostridium difficile. As to the method: Interactions between diiodohydroxyquinoline and the anticlostridial drugs (metronidazole and vancomycin) against Clostridium difficile clinical isolates. […] The fractional inhibitory concentration index (ΣFIC) was calculated for each interaction. Interactions where the ΣFIC index was ≤0.5 were categorized as synergistic (SYN).

A further experiment deals with Bifidobacterium strains. Briefly: MIC against normal gut microflora. Format: cell-based. Conditions: Bifidobacterium strains tested. As for the experimental part: as §1
The mark [7] stands for this setting: DIHQ with metronidazole, C. difficile I9.
Setting [8] is: DIHQ with vancomycin, C. difficile I9.
Where [9] appears, read: DIHQ with metronidazole, C. difficile ATCC 43255.
[10] abbreviates: DIHQ with vancomycin, C. difficile ATCC 43255.
Setting [11] is: DIHQ with metronidazole, C. difficile ATCC BAA-1870.
The mark [12] stands for this setting: DIHQ with vancomycin, C. difficile ATCC BAA-1870.

Converted amounts (≈) assume the structure as drawn. Like-named read-outs stand apart in the source and are kept apart here.

In the case of `Cc1ncc([N+](=O)[O-])n1CCO` [Metronidazole, metronidazole], in experiment [1], the MIC was at most 2 µg/mL. Further, the “MIC of metronidazole combined with DIHQ” value (with C. difficile I9 (C. difficile I9); in the experiment on C. difficile ATCC 43255 (C. difficile ATCC 43255); in [2] (C. difficile ATCC BAA-1870)) was 0.015 µg/mL in each case.

`CCc1c(Cl)c(O)c(Cl)c(O)c1C(=O)O[C@H]1[C@H](O)[C@H](OC)[C@H](OC/C2=C\C=C\C[C@H](O)/C(C)=C/[C@H](CC)[C@@H](O[C@@H]3OC(C)(C)[C@@H](OC(=O)C(C)C)[C@H](O)[C@@H]3O)/C(C)=C/C(C)=C/C[C@@H]([C@@H](C)O)OC2=O)O[C@@H]1C` [Fidaxomicin, fidaxomicin]: in [3], the MIC was above 128 µg/mL.

Consider `Oc1c(I)cc(I)c2cccnc12` [DIHQ, 5,7-diiodoquinolin-8-ol], for which the MIC was 1 µg/mL (≈ 2.52 µM) in experiment [4] (initial screening, C. difficile ATCC BAA 1870, read-out: MIC); above 128 µg/mL in experiment [1]; 64 to 128 µg/mL (≈ 161 to 322 µM) against Bifidobacterium longum; 0.5 to 1 µg/mL (≈ 1.26 to 2.52 µM) in experiment [5]; 0.06 µg/mL in the experiment on C. difficile I9 (C. difficile I9, Table 3, read-out: MIC alone); 1 µg/mL in the experiment on C. difficile ATCC 43255 (ATCC43255, C. difficile ATCC 43255, Table 3, read-out: MIC alone). The MIC in [2] (ATCCBAA1870, C. difficile ATCC BAA-1870, Table 3, read-out: MIC alone) came to 1 µg/mL. Also, the entries for the “MIC of DIHQ combined with metronidazole” value (in the experiment with C. difficile I9 (C. difficile I9); with C. difficile ATCC 43255 (C. difficile ATCC 43255); in experiment [2] (C. difficile ATCC BAA-1870)) were 0.06 µg/mL, 0.25 µg/mL and 0.125 µg/mL, respectively. For the same compound, the “MIC of DIHQ combined with vancomycin” value was found to be 0.06 µg/mL in the experiment with C. difficile I9 (C. difficile I9), 0.125 µg/mL in the experiment on C. difficile ATCC 43255 (C. difficile ATCC 43255) and 0.06 µg/mL in experiment [2] (C. difficile ATCC BAA-1870). Moreover, the MIC alone was determined as 0.06 µg/mL in the experiment with C. difficile I9 (C. difficile I9, Table 4); 1 µg/mL in the experiment with C. difficile ATCC 43255 (C. difficile ATCC 43255, Table 4); 1 µg/mL in experiment [2] (C. difficile ATCC BAA-1870, Table 4). Besides, the Interpretation entry was “ADD (ΣFIC index >0.5 − 1.25 is considered additive (ADD))” with C. difficile I9 (setting [7]); “ADD (ΣFIC index >0.5 − 1.25 is considered additive (ADD))” with C. difficile I9 (setting [8]); “SYN (ΣFIC index ≤0.5 is considered synergistic (SYN))” with C. difficile ATCC 43255 (setting [9]); “SYN (ΣFIC index ≤0.5 is considered synergistic (SYN))” in the experiment with C. difficile ATCC 43255 (setting [10]); “SYN (ΣFIC index ≤0.5 is considered synergistic (SYN))” in experiment [2] (setting [11]); “SYN (ΣFIC index ≤0.5 is considered synergistic (SYN))” in experiment [2] (setting [12]). In addition, the “ΣFIC Index” value came out at 1.125 in the experiment on C. difficile I9 (setting [7]); 1.125 with C. difficile I9 (setting [8]); 0.375 in the experiment on C. difficile ATCC 43255 (setting [9]); 0.25 with C. difficile ATCC 43255 (setting [10]); 0.25 in [2] (setting [11]); 0.185 in experiment [2] (setting [12]). Also, the “tested strains with a synergistic relationship” value in experiment [6] (DIHQ combined with metronidazole) was 7 out of 9. Moreover, the “tested strains with a synergistic interaction” value in experiment [6] (DIHQ combined with vancomycin) is 5 out of 9.

With `CN[C@H](CC(C)C)C(=O)N[C@H]1C(=O)N[C@@H](CC(N)=O)C(=O)N[C@H]2C(=O)N[C@H]3C(=O)N[C@H](C(=O)N[C@H](C(=O)O)c4cc(O)cc(O)c4-c4cc3ccc4O)[C@H](O)c3ccc(c(Cl)c3)Oc3cc2cc(c3O[C@@H]2O[C@H](CO)[C@@H](O)[C@H](O)[C@H]2O[C@H]2C[C@](C)(N)[C@H](O)[C@H](C)O2)Oc2ccc(cc2Cl)[C@H]1O` [Vancomycin, vancomycin], the MIC is 1 µg/mL (≈ 0.69 µM) in experiment [4]; at most 1 µg/mL with Bifidobacterium strains; 1 µg/mL in the experiment with C. difficile I9 (I9, read-out: MIC alone); 1 µg/mL with C. difficile ATCC 43255 (ATCC43255, read-out: MIC alone); 1 µg/mL in experiment [2] (ATCCBAA1870, read-out: MIC alone). The “MIC of vancomycin combined with DIHQ” value (with C. difficile I9 (C. difficile I9); with C. difficile ATCC 43255 (C. difficile ATCC 43255); in experiment [2] (C. difficile ATCC BAA-1870)) was 0.125 µg/mL throughout.
